# In PubChem BioAssay (NCI):
#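 Dose response: 5 concentrations. Exposure: 48 h. Format: 96-well plates. Endpoint: linear interpolation; highest concentration if not reached. At the TGI there is no net growth.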
# Legend:
# Assay in all cases: inhibition of tumour cell growth, NCI panel, 48 h
# 786-0 renal = system: 786-0 renal
# DU-145 prostate = system: DU-145 prostate
# NCI-H226 lung = system: NCI-H226 lung
# NCI-H460 lung = system: NCI-H460 lung
# SF-268 CNS = system: SF-268 CNS
# SK-MEL-5 melanoma = system: SK-MEL-5 melanoma
# SR leukemia = system: SR leukemia
smiles,measurement,setting,value
Cc1cccc(C2ON=C(c3ccccc3)N2C23CC4CC(CC(C4)C2)C3)c1 (stereo unspecified),TGI,786-0 renal,> 10 µM
same,TGI,DU-145 prostate,> 10 µM
same,TGI,NCI-H226 lung,> 10 µM
same,TGI,NCI-H460 lung,> 10 µM
same,TGI,SF-268 CNS,> 10 µM
same,TGI,SK-MEL-5 melanoma,> 10 µM
same,TGI,SR leukemia,> 10 µM
CCOC1OC(CO)C(O)CC1n1ccc(=O)[nH]c1=O (stereo unspecified),TGI,786-0 renal,> 100 µM
same,TGI,DU-145 prostate,> 100 µM
same,TGI,NCI-H226 lung,> 100 µM
same,TGI,NCI-H460 lung,> 100 µM
same,TGI,SF-268 CNS,> 100 µM
same,TGI,SK-MEL-5 melanoma,> 100 µM
CC1(C)OP(=O)(c2ccccc2)C=C1Sc1ccc([N+](=O)[O-])cc1[N+](=O)[O-] (stereo unspecified),TGI,786-0 renal,> 100 µM
same,TGI,DU-145 prostate,> 100 µM
same,TGI,NCI-H226 lung,> 100 µM
same,TGI,NCI-H460 lung,> 100 µM
same,TGI,SF-268 CNS,> 100 µM
same,TGI,SK-MEL-5 melanoma,> 100 µM
same,TGI,SR leukemia,42.9 µM
Cn1c(=O)c2[nH]c(N=O)nc2n(C)c1=O,TGI,786-0 renal,> 100 µM
same,TGI,DU-145 prostate,> 100 µM
same,TGI,NCI-H226 lung,> 100 µM
same,TGI,NCI-H460 lung,> 100 µM
same,TGI,SF-268 CNS,> 100 µM
CC(C)OC(=O)c1ccc(NCc2cc(O)ccc2O)cc1,TGI,786-0 renal,10.3 µM
same,TGI,DU-145 prostate,15.4 µM
same,TGI,NCI-H226 lung,18.9 µM
same,TGI,NCI-H460 lung,> 100 µM
same,TGI,SF-268 CNS,28.4 µM
same,TGI,SK-MEL-5 melanoma,10.8 µM
same,TGI,SR leukemia,10.2 µM
C#CC[C@@H]1C(=O)N(Cc2ccc(OC)cc2)[C@@H](C(C)C)C(=O)N1Cc1ccc(OC)cc1,TGI,786-0 renal,> 100 µM
same,TGI,DU-145 prostate,> 100 µM
same,TGI,NCI-H226 lung,> 100 µM
same,TGI,NCI-H460 lung,> 100 µM
same,TGI,SF-268 CNS,> 100 µM
same,TGI,SK-MEL-5 melanoma,30.3 µM
CO/C(N)=C(\C#N)N=Cc1ccc2ccccc2c1,TGI,786-0 renal,> 100 µM
same,TGI,DU-145 prostate,> 100 µM
same,TGI,NCI-H226 lung,> 100 µM
same,TGI,SF-268 CNS,> 100 µM
same,TGI,SK-MEL-5 melanoma,> 100 µM
same,TGI,SR leukemia,> 100 µM
CC(=O)CCCCn1c(=O)c2c(nc(Br)n2C)n(C)c1=O,TGI,786-0 renal,> 100 µM
same,TGI,DU-145 prostate,> 100 µM
same,TGI,NCI-H226 lung,> 100 µM
same,TGI,NCI-H460 lung,> 100 µM
same,TGI,SF-268 CNS,> 100 µM
same,TGI,SK-MEL-5 melanoma,> 100 µM
same,TGI,SR leukemia,> 100 µM
CSc1ncnc2c1cnn2Cc1cn(COCCO)nn1,TGI,786-0 renal,> 100 µM
same,TGI,DU-145 prostate,> 100 µM
same,TGI,NCI-H226 lung,> 100 µM
same,TGI,NCI-H460 lung,> 100 µM
same,TGI,SF-268 CNS,> 100 µM
same,TGI,SK-MEL-5 melanoma,> 100 µM
same,TGI,SR leukemia,> 100 µM
CNC(=O)c1n[nH]n(C2CCCCC2)c1=S,TGI,786-0 renal,> 100 µM
same,TGI,DU-145 prostate,> 100 µM
same,TGI,NCI-H226 lung,> 100 µM
same,TGI,NCI-H460 lung,> 100 µM
same,TGI,SF-268 CNS,> 100 µM
same,TGI,SK-MEL-5 melanoma,> 100 µM
same,TGI,SR leukemia,> 100 µM
COc1ccc(C2=Nc3c(nc(OC)[nH]c3=O)NC(c3ccccc3)C2)cc1 (stereo unspecified),TGI,786-0 renal,93.6 µM
same,TGI,DU-145 prostate,> 100 µM
same,TGI,NCI-H226 lung,> 100 µM
same,TGI,SK-MEL-5 melanoma,33.7 µM
same,TGI,SR leukemia,> 100 µM
CSc1ncnc2c1cnn2Cc1cnnn1COCC(O)CO (stereo unspecified),TGI,786-0 renal,> 100 µM
same,TGI,DU-145 prostate,> 100 µM
same,TGI,NCI-H226 lung,> 100 µM
same,TGI,SF-268 CNS,46.5 µM
same,TGI,SK-MEL-5 melanoma,> 100 µM
same,TGI,SR leukemia,> 100 µM
FC(F)(F)c1ccc(C2ON=C(c3ccccc3)N2C23CC4CC(CC(C4)C2)C3)cc1 (stereo unspecified),TGI,786-0 renal,> 10 µM
same,TGI,DU-145 prostate,> 10 µM
same,TGI,NCI-H226 lung,> 10 µM
same,TGI,NCI-H460 lung,> 10 µM
same,TGI,SF-268 CNS,> 10 µM
same,TGI,SK-MEL-5 melanoma,> 10 µM
same,TGI,SR leukemia,> 10 µM
COc1ccc(/C=c2\c(=O)[nH]c3nc4ccccc4c(=O)n23)cc1,TGI,786-0 renal,> 100 µM
same,TGI,DU-145 prostate,> 100 µM
same,TGI,NCI-H226 lung,> 100 µM
same,TGI,SF-268 CNS,> 100 µM
same,TGI,SK-MEL-5 melanoma,> 100 µM
same,TGI,SR leukemia,> 100 µM
CC1=NN=C(C)C1N=Nc1ccc2nc(C)[nH]c2c1,TGI,786-0 renal,> 100 µM
same,TGI,DU-145 prostate,> 100 µM
same,TGI,NCI-H226 lung,34.8 µM
same,TGI,NCI-H460 lung,> 100 µM
same,TGI,SF-268 CNS,> 83.1 µM
same,TGI,SK-MEL-5 melanoma,> 63.8 µM
same,TGI,SR leukemia,48.3 µM
O=C/C(=C1/C=Cc2cc([N+](=O)[O-])ccc2S1)c1ccccc1,TGI,786-0 renal,> 100 µM
same,TGI,DU-145 prostate,> 100 µM
same,TGI,NCI-H226 lung,> 100 µM
same,TGI,NCI-H460 lung,> 100 µM
same,TGI,SF-268 CNS,> 100 µM
same,TGI,SK-MEL-5 melanoma,> 100 µM
same,TGI,SR leukemia,> 100 µM
COc1nc(N=P(c2ccccc2)(c2ccccc2)c2ccccc2)cc(=O)n1C,TGI,786-0 renal,> 100 µM
same,TGI,DU-145 prostate,> 100 µM
same,TGI,NCI-H226 lung,> 100 µM
same,TGI,NCI-H460 lung,> 100 µM
same,TGI,SF-268 CNS,> 100 µM
same,TGI,SK-MEL-5 melanoma,> 100 µM
same,TGI,SR leukemia,> 100 µM
O=C(O)c1nc2ccccc2nc1Nc1ccc(Cl)c(Cl)c1,TGI,786-0 renal,63.9 µM
same,TGI,DU-145 prostate,> 100 µM
same,TGI,NCI-H226 lung,> 100 µM
same,TGI,NCI-H460 lung,82.5 µM
same,TGI,SF-268 CNS,> 100 µM
same,TGI,SK-MEL-5 melanoma,47 µM
same,TGI,SR leukemia,> 100 µM
O[C@]12C=C(c3nccc4c3[nH]c3ccccc34)[C@@H]3CCN(CCCC/C=C\CC1)C[C@@]31CC3/C=C\CCCCN3[C@H]12 (stereo partly specified),TGI,786-0 renal,0.615 µM
same,TGI,DU-145 prostate,2.86 µM
same,TGI,NCI-H226 lung,5.2 µM
same,TGI,NCI-H460 lung,2.02 µM
same,TGI,SF-268 CNS,8.59 µM
same,TGI,SK-MEL-5 melanoma,0.34 µM
Nc1nc(NNc2cccc(F)c2)cc(=O)[nH]1,TGI,786-0 renal,37.5 µM
same,TGI,DU-145 prostate,> 100 µM
same,TGI,NCI-H226 lung,> 100 µM
same,TGI,NCI-H460 lung,> 100 µM
same,TGI,SK-MEL-5 melanoma,> 100 µM
same,TGI,SR leukemia,> 100 µM
O=C1Oc2ccccc2C1C/C(=N\Nc1ccccc1)c1ccccc1O (stereo unspecified),TGI,786-0 renal,> 100 µM
same,TGI,DU-145 prostate,> 100 µM
same,TGI,NCI-H226 lung,> 100 µM
same,TGI,NCI-H460 lung,> 100 µM
same,TGI,SF-268 CNS,> 100 µM
same,TGI,SK-MEL-5 melanoma,> 100 µM
same,TGI,SR leukemia,58.1 µM
CSc1nc(=S)[nH]c2c1c(C)nn2-c1ccccc1,TGI,786-0 renal,88.1 µM
same,TGI,DU-145 prostate,40.6 µM
same,TGI,NCI-H226 lung,51.2 µM
same,TGI,NCI-H460 lung,58.9 µM
same,TGI,SF-268 CNS,> 100 µM
same,TGI,SK-MEL-5 melanoma,27.8 µM
same,TGI,SR leukemia,42.8 µM
O=c1[nH]nc(Cc2ccccc2)n1/N=C/c1cccs1,TGI,786-0 renal,> 100 µM
same,TGI,DU-145 prostate,> 100 µM
same,TGI,NCI-H226 lung,> 100 µM
same,TGI,NCI-H460 lung,> 100 µM
same,TGI,SF-268 CNS,> 100 µM
NS(=O)(=O)c1ccc(NC(=O)N/N=C/c2ccccc2O)cc1,TGI,786-0 renal,> 100 µM
same,TGI,DU-145 prostate,> 100 µM
same,TGI,NCI-H226 lung,> 100 µM
same,TGI,NCI-H460 lung,> 100 µM
same,TGI,SF-268 CNS,> 100 µM
same,TGI,SK-MEL-5 melanoma,> 100 µM
same,TGI,SR leukemia,> 100 µM
CC(=O)OI1NC(=O)c2ccccc21,TGI,786-0 renal,> 100 µM
same,TGI,DU-145 prostate,> 100 µM
same,TGI,NCI-H226 lung,> 100 µM
same,TGI,SF-268 CNS,> 100 µM
same,TGI,SK-MEL-5 melanoma,> 100 µM
same,TGI,SR leukemia,> 100 µM
COC(=O)c1ccc2c(c1)CC1(C2)Cc2cc3c(cc2C1)CCC3,TGI,786-0 renal,> 100 µM
same,TGI,DU-145 prostate,> 100 µM
same,TGI,NCI-H460 lung,> 100 µM
same,TGI,SF-268 CNS,> 100 µM
same,TGI,SK-MEL-5 melanoma,> 100 µM
same,TGI,SR leukemia,> 100 µM
O=C1CN(c2ccccc2)Cc2nc(Cl)ccc2N1,TGI,786-0 renal,> 100 µM
same,TGI,DU-145 prostate,> 100 µM
same,TGI,NCI-H226 lung,> 100 µM
same,TGI,NCI-H460 lung,> 100 µM
same,TGI,SF-268 CNS,> 100 µM
same,TGI,SK-MEL-5 melanoma,> 100 µM
same,TGI,SR leukemia,> 100 µM
O=C1N=C2SC=C(NC(=S)Nc3ccccc3)N2NC12c1ccccc1-c1ccccc12,TGI,786-0 renal,> 10 µM
same,TGI,DU-145 prostate,> 10 µM
same,TGI,NCI-H226 lung,> 10 µM
same,TGI,NCI-H460 lung,> 10 µM
same,TGI,SF-268 CNS,> 10 µM
same,TGI,SK-MEL-5 melanoma,> 10 µM
same,TGI,SR leukemia,> 10 µM
CC(C)C1CNC(=O)C2(C=NC(C(C)C)CNC(=O)C3(C=N1)CCCO3)CCCO2 (stereo unspecified),TGI,786-0 renal,> 10 µM
same,TGI,DU-145 prostate,> 10 µM
same,TGI,SF-268 CNS,> 10 µM
same,TGI,SK-MEL-5 melanoma,> 10 µM
same,TGI,SR leukemia,> 10 µM
